# According to patent US10350168B2, “Dermal delivery compositions comprising active agent-calcium phosphate particle complexes and methods of using the same” (Laboratory Skin Care, Inc., priority 2009, dated 2019):
# Where “and” joins values, the source holds several entries; their conditions need not be identical. Identical values can stand only once.
# Tests used:
# [1] = Optimum pH for producing active agent-calcium phosphate complexes; format: physicochemical
# Excerpt: In the following tables, the specific solvent systems are examples of solvent systems that may be used.
# [2] = Franz cell transdermal delivery through pig skin; format: in vitro ADME; conditions: for penetration through skin (riboflavin metabolite in receptor fluid): 8 and 16 hours
# Description: Controlled Slow Release of Active Agents by Franz Cell • Purpose: The purpose of this study was to detect riboflavin from riboflavin attached to calcium phosphate particles. Methods: • Circular 6 cm^2 discs of full-thickness pig skin were cut from a larger abdominal specimen. Fat was removed from the dermis-side by scissors and the skin was stored at −20° C. until use. The skin was affixed between the two compartments of the glass diffusion cell (Laboratory Glass Apparatus, Model #LG-1084-LPCT). This allowed an exposed skin area of 5 cm^2 over a receptor compartment volume of 4.5 ml. The diffusion cell was maintained at 37° C.
# Penetration Conditions • Topical application intervals were 8 and 16 hrs. The cells were covered with parafilm and shielded from light by aluminum wrap. A receptor fluid of phosphate buffered saline (PBS) was spun at 60 rpm.
# Applied Formulations • Riboflavin monophosphate-calcium phosphate particles were prepared to deliver 0.35-1.15 mg riboflavin (20-38% suspensions). • Riboflavin monophosphate in PBS was prepared at 1.5 mg/mL to deliver 0.3-0.45 mg riboflavin. • Formulations were applied by pipette in volumes of 50-100 μl. Riboflavin-calcium phosphate complex applications were allowed to air dry and then equal volume of 0.5 M sodium acetate buffer was pipetted onto the application site. […]
# Sample Collection • The skin surface, while still retained in the diffusion cell, was washed twice with 1 mL PBS each time. The skin was removed from diffusion cell and dried and analyzed.
# Sample Analysis • Washes and Receptor fluid: The approximate volume of the fluids was determined. […] The supernatant was then removed and analyzed by UV spectrometer. If the UV absorbance was saturated (over >2.0), the samples were diluted with water. The UV absorbance value at 370 nm was recorded. • Skin: The skin was minced and mixed with 5 ml of 10% trichloracetic acid solution. […] If the UV absorbance was saturated (over >2.0), samples were diluted with water. The maximum UV absorbance value at 370 nm was recorded.
# [3] = Argireline binding to calcium phosphate particles with or without sodium lauryl sulfate pretreatment; format: physicochemical
# Description: • Argireline to calcium phosphate particles was pretreated with sodium lauryl sulfate Materials: • Calcium phosphate particles • Argireline, (Acetyl Hexapeptide-8), Lipotec S.A. • Sodium lauryl sulfate (SLS), Colonial Chemical, Inc. Methods: • i. Argireline was dissolved in water as a 10 mg/ml solution. • ii. Calcium phosphate particles were mixed with 10 ml of 0.1% SLS for 5 min. […] The pellet was re-suspended in 20 ml water, centrifuged at 2000×g for 10 min, and the washing supernatant was discarded. The washing step was repeated twice. The water contained in the pellet was determined. The final pellet was used in the binding study. • iii. Calcium phosphate particles (SLS treated or no SLS treatment) were mixed with water. HCl (or NaOH) was added to adjust the pH of Calcium phosphate particles suspension to targeted pH including neutral and pH˜10. • iv. Argireline stock at 10 mg/ml was added to each binding suspensions to be a final concentration of 0.5 mg/ml. After the suspension was mixed for 30 min, the final pH was measured. • v. The binding suspensions were centrifuged at 2000×g for 10 min in the bench top centrifuge. The supernatants were analyzed with Refractive Index detector connected to the Shimadzu HPLC 20A system to quantify the free Argireline in the solution. A size-exclusion HPLC method was developed to quantify Argireline in the supernatants of the binding mixtures. […] The mobile phase was 100% water, and eluted at a rate of 1 ml/min. The eluent was monitored at 205 nm or by a refractive index detector (Shimadzu, Model No. RID-10A). Argireline was observed as a major peak in the chromatogram with retention time of about 14 min. The quantification of Argireline was achieved by external standard calibration. • vi. The Argireline bound was then calculated by subtracting the amount of Argireline detected in the supernatant from the total initial amount in the binding suspension.
# [4] = Stability (activity) of ascorbic acid at 50° C. with and without calcium phosphate particles; format: physicochemical; conditions: for activity of ascorbic acid, 2 um: bound to 2 μm calcium phosphate particles; for activity of ascorbic acid, Control: without calcium phosphate particles
# Description: 11.9 mg of ascorbic acid was dissolved in 30 ml of water. 2 g of 2 μm calcium phosphate particles were suspended in 19.5 ml of water and the pH was adjusted to pH 7.14 with HCl. 0.5 ml of ascorbic acid solution (0.40 mg/ml) was mixed in the suspension of calcium phosphate particles, which reduced the pH to 7.05. The suspension (pH 7.05) of calcium phosphate particles including 10 μg/ml of ascorbic acid was incubated at 50° C. for 0.5 to 5 hours. The heat-denaturation of ascorbic acid was terminated by cooling the suspension in an ice bath for 15 minutes. In order to release bound ascorbic acid from calcium phosphate particles to measure the stabilization effect, the pH of each suspension was adjusted to pH 5 with HCl and centrifuged at 3,000 rpm for 10 minutes. The supernatant obtained was measured at 265 nm. As a control, a 10 μg/ml of ascorbic acid solution was also incubated and measured by the same procedures without calcium phosphate particles. The activity of ascorbic acid was calculated by the following formula: The activity of ascorbic acid (%)=(A265nm of the supernatant after incubation/A265nm of the ascorbic acid before incubation)×100 The same procedures were repeated with 10 μm calcium phosphate particles. b. Results
# [5] = Influence of pH on binding of Salicylic acid to calcium phosphate particles (UV 297 nm); format: physicochemical
# Description: • Calcium phosphate particles • Salicylic acid, Fisher Scientific, Part No. A277-500 Methods: • i. 23.2 mg of Salicylic acid was dissolved in 1 ml of ethanol. • ii. 4 g of calcium phosphate particles were suspended in 39.8 ml of water and the pH was adjusted close to the targeted pH with HCl. • iii. 0.2 ml of Salicylic acid solution (23.2 mg/ml) was mixed in the suspension of calcium phosphate particles. • iv. The pH was adjusted to each of the target pH values (11.36, 8.34, 7.47, 7.07, 5.99) with HCl. • v. At each pH, a 4.8 ml sample was taken from the suspension. All the samples were centrifuged separately at 2000×g for 10 min. • vi. The absorbance of supernatant was measured at 297 nm (the detection wavelength for Salicylic acid) by UV spectrophotometer. • vii. […]
# [6] = Sodium Tocopheryl Phosphate binding to and release from calcium phosphate particles (UV 286 nm); format: physicochemical
# Description: • Calcium phosphate particles • Sodium Tocopheryl Phosphate (TPNa), Showa Denko KK • Ethanol, Fisher Scientific, Product No. AC615090020 Methods: • i. 20 mg of TPNa was dissolved in 40 ml of water by gently mixing (0.5 mg/ml). • ii. 3 g of calcium phosphate particles was mixed with 30 ml of TPNa solution at 0.5 mg/ml, and mixed for 30 min. • iii. The binding suspension was centrifuged at 2000×g for 10 min. The supernatant was transferred to new tube, and centrifuge again at 2000×g for 10 min to clarify. The final supernatant was analyzed with an UV spectrophotometer at 286 nm to quantitate free TPNa and calculate the binding. Approximately 100% of TPNa in the binding suspension was attached to calcium phosphate particles. • iv. The pellet of TPNa calcium phosphate complex was re-suspended in 60% ethanol to release the bound TPNa. • v. The release suspension in 60% ethanol was centrifuged at 2000×g for 10 min. The supernatant was analyzed with an UV spectrophotometer at 286 nm to quantitate free TPNa released.
# [7] = Influence of solvent on binding of Adapalene to calcium phosphate particles (UV 319 nm); format: physicochemical
# Description: (§1) • Calcium phosphate particles • Adapalene, Sekhsaria Chemicals Limited, India • DMSO, Fisher Scientific, Product No. D159-4 • Ethanol, Fisher Scientific, Product No. AC61511-0010 Methods: • i. […] The suspensions were mixed for 30 min, and centrifuged at 2000×g for 10 min in a bench top centrifuge. • iv. The absorbance of supernatants were measured at 319 nm (the detection wavelength for Adapalene) by UV spectrophotometer. • v. […]
# [8] = Adapalene saturated solutions in ethanol and DMSO; format: physicochemical
# Description: as §1
# [9] = Tape-stripping analysis of topical application of active-calcium phosphate complexes; format: in vivo; conditions: STAY C50-calcium phosphate particle formulation, human forearm, ten tape strips
# Description: The purpose of this study was to detect the distribution of actives in the stratum corneum following topical application of the active-calcium phosphate particles • Method: The distribution of STAY C50 within the stratum corneum was assessed by serial tape stripping of the skin to which a STAY C50-calcium phosphate particle formulation was applied. An application site on the forearm of a human subject was marked and 200 μl of the formulation spread by spatula. The site was allowed to dry for 10 minutes and then followed by ten pre-weighed tape stripping using strips of (3 in^2) applied to the application site. STAY C50 was extracted from the tape strips by sonicating the samples in water for 30 minutes and analyzing the samples by HPLC. […] An application site on the forearm of a human subject was marked and 200 μl of the formulation spread by spatula. The site was allowed to dry for 10 minutes and then followed by ten pre-weighed tape stripping using strips of (3 in^2) applied to the application site. Lysozyme was extracted from the tape strips by sonicating the samples in water for 30 minutes and analyzing the samples by HPLC. Lysozyme was detected to a depth of 6 tape strips (FIG. 10). 5. Controlled Slow Release of Active Agents by Franz Cell • Purpose: The purpose of this study was to detect riboflavin from riboflavin attached to calcium phosphate particles. […]
compound,measurement,setting,value
Oc1ccc(C=Cc2cc(O)cc(O)c2)cc1 [Resveratrol],Optimum pH,[1]; Loading Solvent Ethanol/water,10
"Cc1c(C)c2c(c(C)c1OP(=O)([O-])OC1=C(O)[C@@H]([C@@H](O)CO)OC1=O)CC[C@@](C)(CCC[C@H](C)CCC[C@H](C)CCCC(C)C)O2.[K+] (racemic) [Sepivital, dl-a-tocopheryl 2 L ascorbyl phosphate]",Optimum pH,[1]; Loading Solvent Water,7
Riboflavin monophosphate,release rate of the active versus aqueous solution,[2]; calcium phosphate particle complex,slower release of the active
same,penetration through skin (riboflavin metabolite in receptor fluid),[2]; from aqueous solution (PBS),penetrated through skin
same,penetration through skin (riboflavin metabolite in receptor fluid),[2]; from calcium phosphate particle complex,penetrated through skin
Acetyl Hexapeptide-8 [Argireline],Argireline bound,"[3]; No pretreatment, pH 7.39",0.09 mg/g
same,Argireline bound,"[3]; No pretreatment, pH 10.46",0.05 mg/g
same,Argireline bound,"[3]; SLS treated particles, pH 7.85",1.19 mg/g
same,Argireline bound,"[3]; SLS treated particles, pH 10.10",2.15 mg/g
same,Optimum pH,[1]; Loading Solvent Water,6.7-7.8 and 7.8 and 6.4
O=C1O[C@H]([C@@H](O)CO)C(O)=C1O [Ascorbic acid],Optimum pH,[1]; Loading Solvent Water,>8.12
same,"activity of ascorbic acid, 2 um",[4]; 0 hrs,100%
same,"activity of ascorbic acid, 2 um",[4]; 0.5 hrs,85%
same,"activity of ascorbic acid, 2 um",[4]; 2 hrs,59%
same,"activity of ascorbic acid, 2 um",[4]; 3 hrs,48%
same,"activity of ascorbic acid, 2 um",[4]; 5 hrs,35%
same,"activity of ascorbic acid, Control",[4]; 0 hrs,100%
same,"activity of ascorbic acid, Control",[4]; 0.5 hrs,36%
same,"activity of ascorbic acid, Control",[4]; 2 hrs,18%
same,"activity of ascorbic acid, Control",[4]; 5 hrs,0%
O=C(O)c1ccccc1O [Salicylic acid],Optimum pH,[1]; Loading Solvent Ethanol/water,4.03-7.90
same,Salicylic acid Bound,[5]; pH 5.99,0 µg/g
same,Salicylic acid Bound,[5]; pH 7.07,23.8 µg/g
same,Salicylic acid Bound,[5]; pH 7.47,97.5 µg/g
same,Salicylic acid Bound,[5]; pH 8.34,660.4 µg/g
same,Salicylic acid Bound,[5]; pH 11.36,1141.14 µg/g
"Cc1c(C)c2c(c(C)c1OP(=O)([O-])[O-])CCC(C)(CCCC(C)CCCC(C)CCCC(C)C)O2.[Na+].[Na+] (stereo not drawn) [TPNa, Sodium Tocopheryl Phosphate]",TPNa in the binding suspension attached to calcium phosphate particles,[6]; 0.5 mg/ml TPNa in water,Approximately 100%
same,integrity of released TPNa (UV spectroscopy),[6]; released in 60% ethanol,identical to an unbound control
COc1ccc(-c2ccc3cc(C(=O)O)ccc3c2)cc1C12CC3CC(CC(C3)C1)C2 [Adapalene],Binding capacity of Adapalene to calcium phosphate particles,[7]; in DMSO,12.55 mg/g
same,Binding capacity of Adapalene to calcium phosphate particles,[7]; in ethanol,0.78 mg/g
same,Optimum pH,[1]; Loading Solvent DMSO,7
same,Optimum pH,[1]; Loading Solvent Ethanol,11 and 7
same,saturated solution concentration,[8]; in DMSO,20.65 mg/mL
same,saturated solution concentration,[8]; in ethanol,0.087 mg/mL
Hyaluronic acid Sodium salt,Optimum pH,[1]; Loading Solvent Water,7
"O=C1O[C@H]([C@@H](O)CO)C([O-])=C1OP(=O)([O-])[O-].[Na+].[Na+].[Na+] [STAY-C50, Sodium Ascorbyl Phosphate]",delivery depth in stratum corneum,[9],10th layer of stratum corneum
